For assay [1], the system named is transgenic SOD1^G93A mice. Description: Hanging wire test (neuromuscular strength and coordination). The note with it: weekly from day 0, drug groups with mGRPs. It counts as in vivo, mouse. How it is done: To assess the motor capacity of our treatment groups, motor skills assays were performed. Starting at day −7 SOD1^G93A mice (n=30) were trained in hanging wire. Animals were trained 3 times a week in 2 days interval. Weekly measurements were performed starting at day 0 until the end of the experiment. Hanging wire test was used to test neuromuscular strength and coordination. Briefly, mice were hung on a wire and had to catch the wire both by upper and lower limbs as well as tangle it with tail in order to move the whole distance towards a stick (repeated three times for each mouse and obtaining an average). Maximum points (1.5 point) were given when mice performed the task. […] A poor score (<0.66 points) was given when a mouse was unable to move the whole distance and the amount of time for which mice were able to hang on the wire (1 sec=0.016 points) was counted. […]
(§1) All quantifications were performed including the manual cell counts in a blinded manner. The NeuN and Ibal were counted as positive cells in the ROI (see above) as previously reported. The number of cells was determined by unbiased counting of positive cells. […] Differences between groups were analyzed using a repeated measure ANOVA model with a fixed effect for the group, of the time and a random intercept for the mouse. […] The statistical significance at p<0.05 was then determined.

Assay [2] has as its system GFP+ mGRPs, GFAP+ astrocytes, OLIG2+ oligodendrocytes. How it is done:
Paraffin slides of the brain tissue after heated in 1 h in 60° C. were deparaffinized in: 1×10 min. Xylen I, 1×10 min Xylen II, 1×10 min EtOH 100%, 1×10 min EtOH 70%, 1×10 min EtOH 40%, 1×10 min dest. H2O. The target was retrieved in Citrate Buffer+Tween 20 (10 mM, pH=6.0) in a water bath for 20 minutes in 97° C. and then they were let cool down for another 20 minutes. Slides were washed in PBS three times and blocked 1 hour in 10% Goat serum+1% bovine albumin serum. All slides was incubated overnight at 4° C. with a first primary mouse Anti-GFP antibody 1:500 (Abcam Cat #ab1218, RRID: AB_298911). Washed three times with PBS, then secondary antibody Goat Anti-Mouse IgG H&L (Alexa Fluor® 488) in concentration 1:700 (Abcam Cat #ab 150117, RRID: AB_2688012) was applied for 40 min in RT. Then one part of the slides was washed three times in PBS and the second primary Rabbit Anti-GFAP antibody (Abcam Cat #ab7260, RRID: AB_305808) was applied 1:1000, incubated overnight at 4° C. After that the secondary antibody Goat Anti-Rabbit IgG H&L (Alexa Fluor® 594) (Abcam Cat #ab 150080, RRID: AB_2650602) was applied for 40 min RT in concentration 1:700. The second part of the slides was incubated with Rabbit Recombinant Anti-Olig2 antibody (Abcam Cat #ab109186, RRID: AB_10861310) 1:100 incubated overnight in 4° C. Next day the secondary antibody Goat Anti-Rabbit IgG H&L (Alexa Fluor® 594) (Abcam Cat #ab150080, RRID: AB_2650602) was applied for 40 min RT in 1:700 concentration. […] The slides were washed in PBS, mounted with DAKO mounting medium (Agilent Technologies, Santa Clara, CA, United States) and analyzed under Leica DM5500 fluorescent microscopy with LAS X software.

A further assay deals with immature brain injury. The note with it: murine model of immature brain injury; cited from earlier work.
The test system of a further assay is IL-1α. Description: Serum cytokine analysis, multiplex ELISA. Format: in vivo, mouse. The note with it: serum collected weekly; compared to Injury and mGRPs groups. How it is done:
(§2) Samples were collected every week, starting from day of graft transplantation (day 0), 100 μl of blood from mouse tail. Blood was stored 1 h in room temperature, and overnight in +4° C. Serum was gently aspirated, and centrifuged 10 min with 2000 RPM to separate blood morphotic bodies. Purified serum was stored in −80° C. until further analysis. Multiplex ELISA 23-cytokine kit (M60009RDPD) was obtained from Bio-Rad (Bio-Plex Pro Mouse Cytokine 23-plex Assay #M60009RDPD, Hercules, Bio-Rad, CA, USA, RRID: AB_2857368) and performed according to instructions. 50 μl of diluted in sample diluent, 1:4 serum samples and diluted at range 1:10-1:20. Measurement standards were used, diluted 9 times according to the protocol and added at template plate. Vortexed beads were added to the assay 96-well plate. Plate was again washed 3 times with wash buffer, then from template plate, 50 μl of samples, standards and blank were transferred to measurement plate with multichannel pipette. Plate was sealed with tape and incubated 30 min. After this time, plate was washed 3 times. 25 μl of detection antibody was added to the wells with multichannel pipette. Plate was sealed and incubated for 30 min. and next washed 3 times using wash buffer. […] Beads were resuspended with 125 μl of assay buffer and analysis was performed with Bio Plex 200 reader.
as §1, with “mouse. In a second, more explorative, approach for each group the time when the physical activity was first measured below a certain threshold was determined. […] The clinically relevant threshold was determined according to previous observations and defined as value 0.9 for the Wire Test.” for “mouse.”
For orientation: ELISA stands for enzyme-linked immunosorbent assay.

The test system of the next assay is IL-12. Description: Serum cytokine analysis, multiplex ELISA. It counts as in vivo, mouse. The note with it: serum collected weekly; compared to other groups. How it is done:
as §2
as §1, with “mouse. In a second, more explorative, approach for each group the time when the physical activity was first measured below a certain threshold was determined. […] The clinically relevant threshold was determined according to previous observations and defined as value 0.9 for the Wire Test.” for “mouse.”

Setting [3] is: whole cross section of the mouse diencephalon.

Data on 1 sequence can be found in US20250170212A1, “COMPOSITIONS AND METHODS OF TREATING AMYOTROPHIC LATERAL SCLEROSIS (ALS) AND RELATED DISORDERS” (BIOINCEPT, LLC, priority 2022, published 2025).

“Also recorded” adds a separate entry of the source.

Turning to MVRIKPGSANKPSDD [sPIF], the “motor performance in hanging wire test (early motor impairment)” value in assay [1] is given as “significant delay of early motor impairment; also recorded: significant improvement of motor outcome”. For the same sequence, the “mGRPs progeny: GFP+ astrocytes and oligodendrocytes in brain parenchyma” value in assay [2] (diencephalon, day 56) is “few GFP+ astrocytes and oligodendrocytes in the brain parenchyma”. In addition, in assay [2] (setting [3]), the “area of astrocytes (GFAP+)” value was “significantly larger area of astrocytes” and the “area of oligodendrocytes (OLIG2+)” value is on record as “larger area of oligodendrocytes”. In addition, the “neuronal loss and microglial activation” value with immature brain injury is “mitigate neuronal loss and microglial activation”. For the same sequence, in the assay on IL-1α, the “peripheral IL-1α cytokine peak” value is listed as “decreased IL-1α peak significantly”. In addition, in the assay on IL-12, the “peripheral IL-12 cytokine level” value was “plateaued at day 28”.
